Assay results taken from patent US10336759B2, “Salts and processes of preparing a PI3K inhibitor” (Incyte Corporation, priority 2015, dated 2019).

Key:
Type in all cases: biochemical
[1] = molecular target: PI3Kβ (Homo sapiens (Human), UniProt P42338); experiment: PI3K Enzyme Assay (Example A2), PI3Kβ; conditions: assay of Example A2, 1000 μM ATP
Description: (§1) PI3K isoforms α, β, δ and γ are purchased from Millipore (Bedford, Mass.).
(§2) The kinase reactions are conducted in clear-bottom 96-well plate from Thermo Fisher Scientific in a final volume of 24 μL. Inhibitors are first diluted serially in DMSO and added to the plate wells before the addition of other reaction components. The final concentration of DMSO in the assay is 0.5%. […] The reaction mixture is prepared containing 50 μM PIP2, kinase and varying concentration of inhibitors. […] Reactions are incubated for 180 minutes and terminated by the addition of 100 μL of 1 M potassium phosphate pH 8.0, 30 mM EDTA quench buffer. A 100 μL aliquot of the reaction solution are then transferred to 96-well Millipore MultiScreen IP 0.45 μm PVDF filter plate (The filter plate is prewetted with 200 μL 100% ethanol, distilled water, and 1 M potassium phosphate pH 8.0, respectively). […] After drying by aspiration and blotting, the plate is air dried in an incubator at 37° C. overnight. Packard TopCount adapter (Millipore) is then attached to the plate followed with addition of 120 μL Microscint 20 scintillation cocktail (Perkin Elmer) in each well. After the plate sealing, the radioactivity of the product is determined by scintillation counting on Topcount (Perkin-Elmer). […]

[2] = molecular target: PI3Kδ (Homo sapiens (Human), UniProt O00329); experiment: PI3K Enzyme Assay (Example A2), PI3Kδ; conditions: assay of Example A2, 1000 μM ATP
Description: as §1, §2

[3] = molecular target: PI3Kα (Homo sapiens (Human), UniProt P42336); experiment: PI3K Enzyme Assay (Example A2), PI3Kα; conditions: assay of Example A2, 1000 μM ATP
Description: as §1, §2

[4] = molecular target: PI3Kγ (Homo sapiens (Human), UniProt P48736); experiment: PI3K Enzyme Assay (Example A2), PI3Kγ; conditions: assay of Example A2, 1000 μM ATP
Description: as §1, §2

[5] = molecular target: PI3Kδ (p110δ/p85α) (Homo sapiens (Human), UniProt O00329); experiment: PI3Kδ Scintillation Proximity Assay (Example A3); conditions: assay of Example A3, 20 μM ATP, 20 μM PIP2
Description: The kinase reaction was conducted in polystyrene 384-well matrix white plate from Thermo Fisher Scientific in a final volume of 25 μL. Inhibitors were first diluted serially in DMSO and added to the plate wells before the addition of other reaction components. The final concentration of DMSO in the assay was 0.5%. The PI3K assays were carried out at room temperature in 20 mM MOPS, pH 6.7, 10 mM MgCl2, 5 mM DTT and CHAPS 0.03%. […] IC50 determination was performed by fitting the curve of percent control activity versus the log of the inhibitor concentration using the GraphPad Prism 3.0 software.

Sequence of PI3Kβ (P42338 whole entry, canonical isoform): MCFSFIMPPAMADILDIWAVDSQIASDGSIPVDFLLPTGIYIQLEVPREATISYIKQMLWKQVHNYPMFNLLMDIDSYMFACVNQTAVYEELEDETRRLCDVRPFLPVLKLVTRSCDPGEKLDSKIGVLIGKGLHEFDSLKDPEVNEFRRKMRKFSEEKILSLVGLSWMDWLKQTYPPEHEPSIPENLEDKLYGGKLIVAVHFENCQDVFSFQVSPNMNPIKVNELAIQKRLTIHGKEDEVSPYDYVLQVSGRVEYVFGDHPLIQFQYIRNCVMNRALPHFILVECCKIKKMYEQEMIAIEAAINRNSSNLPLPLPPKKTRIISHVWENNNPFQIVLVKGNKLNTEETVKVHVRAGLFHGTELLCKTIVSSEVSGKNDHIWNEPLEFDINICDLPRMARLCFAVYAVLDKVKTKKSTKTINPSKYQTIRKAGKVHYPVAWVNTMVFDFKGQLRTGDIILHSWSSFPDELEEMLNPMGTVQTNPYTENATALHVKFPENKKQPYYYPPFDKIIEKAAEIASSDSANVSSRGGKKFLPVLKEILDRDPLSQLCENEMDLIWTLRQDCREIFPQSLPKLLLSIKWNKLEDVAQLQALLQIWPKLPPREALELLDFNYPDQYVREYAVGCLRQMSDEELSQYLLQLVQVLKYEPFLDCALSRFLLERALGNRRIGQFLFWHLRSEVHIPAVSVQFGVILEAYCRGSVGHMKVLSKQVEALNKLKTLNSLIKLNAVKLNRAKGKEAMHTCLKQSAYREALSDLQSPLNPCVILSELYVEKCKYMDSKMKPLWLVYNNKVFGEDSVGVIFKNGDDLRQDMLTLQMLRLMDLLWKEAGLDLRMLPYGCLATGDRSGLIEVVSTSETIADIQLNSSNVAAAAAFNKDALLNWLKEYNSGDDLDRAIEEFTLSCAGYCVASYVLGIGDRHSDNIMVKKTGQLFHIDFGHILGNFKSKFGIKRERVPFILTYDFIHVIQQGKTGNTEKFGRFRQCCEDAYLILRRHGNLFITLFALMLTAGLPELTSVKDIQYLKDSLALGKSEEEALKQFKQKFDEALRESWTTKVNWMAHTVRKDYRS
Sequence of PI3Kβ (P27986 whole entry partner, canonical isoform): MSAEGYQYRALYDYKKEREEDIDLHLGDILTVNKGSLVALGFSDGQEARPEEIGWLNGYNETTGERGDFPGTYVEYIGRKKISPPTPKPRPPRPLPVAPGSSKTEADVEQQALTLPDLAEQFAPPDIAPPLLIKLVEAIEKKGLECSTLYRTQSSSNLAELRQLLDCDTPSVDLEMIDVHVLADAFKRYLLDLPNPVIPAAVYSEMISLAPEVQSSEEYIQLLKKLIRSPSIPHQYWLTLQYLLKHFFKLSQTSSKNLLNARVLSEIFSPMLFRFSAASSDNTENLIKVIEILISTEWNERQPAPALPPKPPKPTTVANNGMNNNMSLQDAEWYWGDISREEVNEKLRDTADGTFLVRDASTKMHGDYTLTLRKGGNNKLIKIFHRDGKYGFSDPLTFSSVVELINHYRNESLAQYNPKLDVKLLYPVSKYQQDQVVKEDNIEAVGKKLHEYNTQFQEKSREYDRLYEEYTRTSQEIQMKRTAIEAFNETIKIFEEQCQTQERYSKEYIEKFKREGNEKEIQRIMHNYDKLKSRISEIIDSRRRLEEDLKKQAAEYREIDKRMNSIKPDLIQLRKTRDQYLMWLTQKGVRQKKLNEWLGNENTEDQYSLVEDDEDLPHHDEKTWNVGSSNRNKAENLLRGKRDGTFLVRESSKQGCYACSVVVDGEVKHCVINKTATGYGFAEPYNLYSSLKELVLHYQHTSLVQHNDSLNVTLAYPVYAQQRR
Sequence of PI3Kα (P42336 whole entry): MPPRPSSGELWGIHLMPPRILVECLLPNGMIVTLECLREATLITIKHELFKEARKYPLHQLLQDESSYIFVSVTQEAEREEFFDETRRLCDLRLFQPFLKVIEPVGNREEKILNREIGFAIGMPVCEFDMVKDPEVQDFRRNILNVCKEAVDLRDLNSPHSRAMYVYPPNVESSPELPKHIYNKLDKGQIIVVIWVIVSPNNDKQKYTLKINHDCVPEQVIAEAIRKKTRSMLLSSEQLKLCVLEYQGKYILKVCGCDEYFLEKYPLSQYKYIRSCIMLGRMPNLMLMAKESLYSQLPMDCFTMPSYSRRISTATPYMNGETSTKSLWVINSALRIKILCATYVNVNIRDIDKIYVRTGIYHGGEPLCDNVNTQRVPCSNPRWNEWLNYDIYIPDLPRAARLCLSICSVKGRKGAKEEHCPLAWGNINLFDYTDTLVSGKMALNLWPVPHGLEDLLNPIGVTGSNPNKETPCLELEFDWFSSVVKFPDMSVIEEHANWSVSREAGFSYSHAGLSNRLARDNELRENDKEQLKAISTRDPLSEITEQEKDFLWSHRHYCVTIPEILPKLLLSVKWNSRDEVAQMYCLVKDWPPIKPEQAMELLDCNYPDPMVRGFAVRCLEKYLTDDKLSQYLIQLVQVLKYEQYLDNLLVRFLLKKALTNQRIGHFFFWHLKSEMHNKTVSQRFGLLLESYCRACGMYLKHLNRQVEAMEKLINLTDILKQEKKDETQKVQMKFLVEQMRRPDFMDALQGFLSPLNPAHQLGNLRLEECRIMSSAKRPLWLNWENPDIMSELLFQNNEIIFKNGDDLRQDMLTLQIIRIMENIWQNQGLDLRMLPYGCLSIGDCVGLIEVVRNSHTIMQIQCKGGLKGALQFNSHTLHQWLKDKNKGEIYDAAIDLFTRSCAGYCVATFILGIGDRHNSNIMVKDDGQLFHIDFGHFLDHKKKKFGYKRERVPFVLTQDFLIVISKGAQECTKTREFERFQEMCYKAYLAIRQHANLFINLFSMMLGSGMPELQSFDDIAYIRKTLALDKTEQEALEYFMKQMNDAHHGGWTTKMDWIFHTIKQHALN
Sequence of PI3Kα (P27986 whole entry partner): as the sequence (P27986 whole entry partner, canonical isoform) above
Sequence of PI3Kδ (p110δ/p85α) (O00329 whole entry): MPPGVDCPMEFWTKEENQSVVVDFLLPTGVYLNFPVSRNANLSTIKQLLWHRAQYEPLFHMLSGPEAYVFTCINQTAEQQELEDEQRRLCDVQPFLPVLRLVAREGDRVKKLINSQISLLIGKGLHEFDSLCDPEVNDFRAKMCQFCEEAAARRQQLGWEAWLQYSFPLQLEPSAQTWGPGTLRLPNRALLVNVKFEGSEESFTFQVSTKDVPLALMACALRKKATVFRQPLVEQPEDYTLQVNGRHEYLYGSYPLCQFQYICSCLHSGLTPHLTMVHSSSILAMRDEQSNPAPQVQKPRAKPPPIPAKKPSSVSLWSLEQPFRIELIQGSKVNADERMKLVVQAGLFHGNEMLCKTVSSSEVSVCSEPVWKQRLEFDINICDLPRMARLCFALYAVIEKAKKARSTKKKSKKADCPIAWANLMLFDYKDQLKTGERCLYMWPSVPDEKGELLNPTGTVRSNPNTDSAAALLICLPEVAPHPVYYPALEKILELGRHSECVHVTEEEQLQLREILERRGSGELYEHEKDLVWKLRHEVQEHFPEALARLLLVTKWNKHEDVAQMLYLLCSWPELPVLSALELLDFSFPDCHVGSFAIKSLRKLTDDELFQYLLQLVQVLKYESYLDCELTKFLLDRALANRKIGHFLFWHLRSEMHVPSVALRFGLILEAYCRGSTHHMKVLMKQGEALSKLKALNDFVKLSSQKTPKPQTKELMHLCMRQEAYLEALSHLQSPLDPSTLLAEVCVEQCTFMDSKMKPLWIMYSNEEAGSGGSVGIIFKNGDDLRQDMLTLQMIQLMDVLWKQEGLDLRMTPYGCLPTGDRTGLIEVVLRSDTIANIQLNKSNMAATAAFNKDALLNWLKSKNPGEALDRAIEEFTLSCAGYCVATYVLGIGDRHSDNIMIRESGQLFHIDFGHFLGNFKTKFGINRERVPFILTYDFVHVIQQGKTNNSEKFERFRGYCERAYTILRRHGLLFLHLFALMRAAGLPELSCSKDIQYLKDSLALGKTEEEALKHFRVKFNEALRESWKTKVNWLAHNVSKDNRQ
Sequence of PI3Kδ (p110δ/p85α) (P27986 whole entry partner): as the sequence (P27986 whole entry partner, canonical isoform) above
Sequence of PI3Kδ (O00329 whole entry): as the sequence (O00329 whole entry) above
Sequence of PI3Kδ (P27986 whole entry partner): as the sequence (P27986 whole entry partner, canonical isoform) above

fold selectivity for PI3Kδ over PI3Kβ [1] [fold] | selectivity for PI3Kδ [2] | fold selectivity for PI3Kδ over PI3Kα [3] [fold] | fold selectivity for PI3Kδ over PI3Kγ [4] [fold] | IC50 [5] [nM] | SMILES
> 100 | selective inhibitor for PI3Kδ | > 100 | > 100 |  | CCOc1c([C@H](C)n2nc(C)c3c(N)ncnc32)cc(Cl)c(F)c1[C@@H]1CNC(=O)C1.Cl [(R)-4-(3-((S)-1-(4-amino-3-methyl-1H-pyrazolo[3,4-d]pyrimidin-1-yl)ethyl)-5-chloro-2-ethoxy-6-fluorophenyl)pyrrolidin-2-one hydrochloride]
 |  |  |  | ≤ 10 | CCOc1c([C@H](C)n2nc(C)c3c(N)ncnc32)cc(Cl)c(F)c1[C@@H]1CNC(=O)C1 [compound of Formula I, (R)-4-(3-((S)-1-(4-amino-3-methyl-1H-pyrazolo[3,4-d]pyrimidin-1-yl)ethyl)-5-chloro-2-ethoxy-6-fluorophenyl)pyrrolidin-2-one]
